According to US11352349B2, “Type II topoisomerase inhibitors and methods of making and using thereof” (Ohio State Innovation Foundation, priority 2017, dated 2022):
Converted amounts (≈) assume the structure as drawn.

system: S. aureus ATCC 29213; test: MIC by broth microdilution (CLSI), quality control strain S. aureus ATCC 29213; type: cell-based, Staphylococcus aureus; conditions: Staphylococcus aureus, ATCC29213, S. aureus ATCC 29213; multiple values when multiple MIC assays were conducted
Method: Minimum inhibitory concentrations were determined using the quality control strain S. aureus ATCC 29213 (Table 1) by the broth microdilution method according to guidelines of the Clinical and Laboratory Standards Institute (CLSI) (Cockerill, F. R.; et al., 2012, Methods for dilution antimicrobial susceptibility tests for bacteria that grow aerobically; approved standard-ninth edition. MA07-A9. Clinical and Laboratory Standard Institute, Wayne, Pa.). […] Published quality control ranges for gepotidacin and ciprofloxacin were used to validate each assay. MICs for selected compounds were also determined using a USA 300 strain of MRSA (Hidron, et al., Lancet Infect. Dis. 2009, 9:384-392). Vancomycin was used as an additional control.

Going from COc1ccc2nccc(CC[C@H]3OC[C@H](NCc4ccc(F)cc4)CO3)c2c1 [AB-0041, N-(4-fluorobenzyl)-2-(2-(6-methoxyquinolin-4-yl)ethyl)-trans-1,3-dioxan-5-amine] to COc1ccc2nccc(CC[C@H]3OC[C@H](NCc4ccc(OC(F)F)cc4)CO3)c2c1 [AB-0084, N-(4-(difluoromethoxy)benzyl)-2-(2-(6-methoxyquinolin-4-yl)ethyl)-trans-1,3-dioxan-5-amine], the MIC falls from greater than 64 µg/mL to 4 µg/mL (≈ 9 µM).

Going from COc1ccc2nccc(CC[C@H]3OC[C@H](NCc4ccc(OC)nc4)CO3)c2c1 [AB-0056, N-((6-methoxypyridin-3-yl)methyl)-2-(2-(6-methoxyquinolin-4-yl)ethyl)-trans-1,3-dioxan-5-amine] to COc1ccc2nccc(CC[C@H]3OC[C@H](NCc4cccc(OC)n4)CO3)c2c1 [AB-0040, N-((6-methoxypyridin-2-yl)methyl)-2-(2-(6-methoxyquinolin-4-yl)ethyl)-trans-1,3-dioxan-5-amine], the MIC rises from 32 µg/mL (≈ 78.1 µM) to greater than 64 µg/mL.

First: COc1ccc2nccc(CC[C@H]3OC[C@H](NC(=O)c4ccc(Cl)c(Cl)c4)CO3)c2c1 [AB-0089, 3,4-dichloro-N-(2-(2-(6-methoxyquinolin-4-yl)ethyl)-trans-1,3-dioxan-5-yl)benzamide]
Second: COc1ccc2nccc(CC[C@H]3OC[C@H](NC(=O)c4ccc5c(c4)OCCO5)CO3)c2c1 [AB-0088, N-(2-(2-(6-methoxyquinolin-4-yl)ethyl)-trans-1,3-dioxan-5-yl)-2,3-dihydrobenzo[b][1,4]dioxine-6-carboxamide]
The MIC of the first is lower: no more than 0.5 µg/mL for the first, 8 µg/mL (≈ 17.8 µM) for the second.

First: COc1ccc2nccc(CC[C@H]3OC[C@H](NCc4c(F)cccc4F)CO3)c2c1 [AB-0025, N-(2,6-difluorobenzyl)-2-(2-(6-methoxyquinolin-4-yl)ethyl)-trans-1,3-dioxan-5-amine]
Second: COc1ccc2nccc(CC[C@H]3OC[C@H](NCc4cccc(F)c4F)CO3)c2c1 [AB-0028, N-(2,3-difluorobenzyl)-2-(2-(6-methoxyquinolin-4-yl)ethyl)-trans-1,3-dioxan-5-amine]
The MIC of the first is higher: greater than 64 µg/mL for the first, 64 µg/mL (≈ 154 µM) for the second.

Compared with COc1ccc2nccc(CC[C@H]3OC[C@H](NCc4ccccn4)CO3)c2c1 [AB-0048], COc1ccc2nccc(CC[C@H]3OC[C@H](NCc4ccc(C)cn4)CO3)c2c1 [AB-0070, 2-(2-(6-methoxyquinolin-4-yl)ethyl)-N-((5-methylpyridin-2-yl)methyl)-trans-1,3-dioxan-5-amine] is 2-fold lower in MIC: 8 µg/mL (≈ 21.1 µM) for the first, 4 µg/mL (≈ 10.2 µM) for the second.

COc1ccc2nccc(CC[C@H]3OC[C@H](NCc4ccccc4OC)CO3)c2c1 [AB-0027, N-(2-methoxybenzyl)-2-(2-(6-methoxyquinolin-4-yl)ethyl)-trans-1,3-dioxan-5-amine] and COc1ccc2nccc(CC[C@H]3OC[C@H](NCc4ccccc4C)CO3)c2c1 [AB-0032, 2-(2-(6-methoxyquinolin-4-yl)ethyl)-N-(2-methylbenzyl)-trans-1,3-dioxan-5-amine] cannot be ordered by MIC: greater than 64 µg/mL for the first, greater than 64 µg/mL for the second.

COc1ccc2ncc(=O)n(CC[C@H]3OC[C@H](NCc4cc5c(cn4)OCCC5)CO3)c2c1 [AB-0006, 1-(2-(5-(((3,4-dihydro-2H-pyrano[2,3-c]pyridin-6-yl)methyl)amino)-trans-1,3-dioxan-2-yl)ethyl)-7-methoxyquinoxalin-2(1H)-one] and COc1ccc2ncc(=O)n(CC[C@H]3OC[C@H](NCc4cc5c(cn4)OCCO5)CO3)c2c1 [AB-0003, 1-(2-(5-(((2,3-dihydro-[1,4]dioxino[2,3-c]pyridin-7-yl)methyl)amino)-1,3-trans-dioxan-2-yl)ethyl)-7-methoxyquinoxalin-2(1H)-one] are the same in MIC: 8 µg/mL (≈ 17.7 µM) for the first, 8 µg/mL (≈ 17.6 µM) for the second.

COc1ccc2nccc(CC[C@H]3OC[C@H](NCc4cccnc4)CO3)c2c1 [AB-0049, 2-(2-(6-methoxyquinolin-4-yl)ethyl)-N-(pyridin-3-ylmethyl)-trans-1,3-dioxan-5-amine] and COc1ccc2nccc(CC[C@H]3OC[C@H](NCc4ccccc4)CO3)c2c1 [AB-0038, N-benzyl-2-(2-(6-methoxyquinolin-4-yl)ethyl)-trans-1,3-dioxan-5-amine] cannot be ordered by MIC: greater than 64 µg/mL for the first, greater than 64 µg/mL for the second.

Going from COc1ccc2nccc(CC[C@H]3OC[C@H](NCc4cccc(C#N)c4)CO3)c2c1 [AB-0026, 3-(((2-(2-(6-methoxyquinolin-4-yl)ethyl)-trans-1,3-dioxan-5-yl)amino)methyl)benzonitrile] to COc1ccc2nccc(CC[C@H]3OC[C@H](NCc4cccc(C)c4)CO3)c2c1 [AB-0042, 2-(2-(6-methoxyquinolin-4-yl)ethyl)-N-(3-methylbenzyl)-trans-1,3-dioxan-5-amine], the MIC falls from 64 µg/mL (≈ 159 µM) to 16 µg/mL (≈ 40.8 µM) (4-fold).

COc1ccc2nccc(CC[C@H]3OC[C@H](NCc4ccccc4Cl)CO3)c2c1 [AB-0043, N-(2-chlorobenzyl)-2-(2-(6-methoxyquinolin-4-yl)ethyl)-trans-1,3-dioxan-5-amine] and COc1ccc2nccc(CC[C@H]3OC[C@H](NCc4ccccc4F)CO3)c2c1 [AB-0033, N-(2-fluorobenzyl)-2-(2-(6-methoxyquinolin-4-yl)ethyl)-trans-1,3-dioxan-5-amine] cannot be ordered by MIC: greater than 64 µg/mL for the first, greater than 64 µg/mL for the second.

Going from COc1ccc2nccc(CC[C@H]3OC[C@H](NCc4cc(F)cc(F)c4)CO3)c2c1 [AB-0029, N-(3,5-difluorobenzyl)-2-(2-(6-methoxyquinolin-4-yl)ethyl)-trans-1,3-dioxan-5-amine] to COc1ccc2nccc(CC[C@H]3OC[C@H](NCc4ccc(F)c(F)c4)CO3)c2c1 [AB-0024, N-(3,4-difluorobenzyl)-2-(2-(6-methoxyquinolin-4-yl)ethyl)-trans-1,3-dioxan-5-amine], the MIC rises from 16 µg/mL (≈ 38.6 µM) to 64 µg/mL (≈ 154 µM) (4-fold).

First: COc1ccc2nccc(CC[C@H]3OC[C@H](NCc4ccc(Cl)cn4)CO3)c2c1 [AB-0069, N-((5-chloropyridin-2-yl)methyl)-2-(2-(6-methoxyquinolin-4-yl)ethyl)-trans-1,3-dioxan-5-amine]
Second: COc1ccc2nccc(CC[C@H]3OC[C@H](NCc4cccs4)CO3)c2c1 [AB-0036, 2-(2-(6-methoxyquinolin-4-yl)ethyl)-N-(thiophen-2-ylmethyl)-trans-1,3-dioxan-5-amine]
The MIC of the first is lower: 8 µg/mL (≈ 19.3 µM) for the first, greater than 64 µg/mL for the second.

Compared with COc1cccc(CN[C@H]2CO[C@H](CCc3ccnc4ccc(OC)cc34)OC2)c1 [AB-0034, N-(3-methoxybenzyl)-2-(2-(6-methoxyquinolin-4-yl)ethyl)-trans-1,3-dioxan-5-amine], COc1ccc2nccc(CC[C@H]3OC[C@H](NCc4ccsc4)CO3)c2c1 [AB-0035, 2-(2-(6-methoxyquinolin-4-yl)ethyl)-N-(thiophen-3-ylmethyl)-trans-1,3-dioxan-5-amine] is higher in MIC: 16 µg/mL (≈ 39.2 µM) for the first, greater than 64 µg/mL for the second.

COc1ccc2ncc(=O)n(CC(O)[C@H]3OC[C@H](NCc4ccc5c(n4)NC(=O)CO5)CO3)c2c1 (relative stereo) [AB-0078, 6-(((2-(1-hydroxy-2-(7-methoxy-2-oxoquinoxalin-1(2H)-yl)ethyl)-trans-1,3-dioxan-5-yl)amino)methyl)-2H-pyrido[3,2-b][1,4]oxazin-3(4H)-one] and COc1ccc2ncc(=O)n(CC[C@H]3OC[C@H](NCc4ccc(Cl)c(Cl)c4)CO3)c2c1 [AB-0007, 1-(2-(5-((3,4-dichlorobenzyl)amino)-trans-1,3-dioxan-2-yl)ethyl)-7-methoxyquinoxalin-2(1H)-one] are the same in MIC: 4 µg/mL (≈ 8.27 µM) for the first, 4 µg/mL (≈ 8.61 µM) for the second.

In the case of COc1ccc2nccc(CC[C@H]3OC[C@H](NCCc4ccccc4)CO3)c2c1 [AB-0045, 2-(2-(6-methoxyquinolin-4-yl)ethyl)-N-phenethyl-trans-1,3-dioxan-5-amine], the MIC is reported as 64 µg/mL (≈ 163 µM).
